# Source: patent publication US12527835B2, “Brevican-binding peptides for brain tumor imaging” (The Brigham and Women's Hospital, Inc., priority 2018, dated 2026)
# Where a SMILES comes first, the peptide text is derived from it. [ ]: non-standard residue; d: D form.
# How the values were obtained:
# [1] = system: BΔg-derived peptide (a.a. 535-548 of BΔg); assay: Circular dichroism of peptide mixed with BΔg-derived peptide; assay type: binding, human; details: CD spectrometry, control peptide
# Experimental: (§1) The BΔg peptide (or control BΔg(Scramble) peptide), BTP-7-FITC peptide, or a mixture of both (dissolved in Milli-Q H2O to a final concentration of 50 μM for each peptide) was loaded into a quartz cuvette (1 mm pathlength; Hellma Analytics Catalog #110-1-40). The cuvette was inserted into the Jasco J-815 circular dichroism spectropolarimeter, and the spectral scan measurement was conducted using the Spectrum Manager 2 software. The cuvette was rinsed with Milli-Q H2O in between each run. A blank (water) was run to establish the baseline for all samples. Scans were measured from 190 nm to 260 nm in a continuous mode (50-100 nm/min) at 20° C. To measure the BTP-7 structural change in the presence of either the BΔg (or control scramble) peptide, spectrum of the BΔg (or scramble) peptide alone was subtracted from the spectrum of the mixture, and then overlaid with the spectrum of BTP-7 alone for comparison. To investigate the structural changes in BTP-7 in a dose-dependent manner, 50 μM of BTP-7 peptide was loaded together with varying concentrations of either the BΔg (or control scramble) peptide. Similarly, the spectrum of each BΔg (or control scramble) peptide at the concentration was subtracted from the spectrum of the corresponding mixture, and then overlaid with the spectrum of BTP-7 alone for comparison.
# [2] = molecular target: T1, BΔg-derived peptide (a.a. 535-548 of BΔg) (Homo sapiens, UniProt Q96GW7); assay: as above; assay type: binding; details: CD spectrometry, 50 μM each peptide
# T1 construct: purchased GenScript USA Inc; host or cells: chemical synthesis
# Experimental: as §1
# HEK-Bcan cells = assay: Flow cytometry blocking study with 50× molar excess of unlabeled peptide; assay type: cell-based, human; details: fluorescein-conjugated peptide 1 μM
# Experimental: Cells were washed once with PBS and then, treated with 1 mL of 2.5 mM EDTA to dissociate the cells. The EDTA was removed by centrifugation, and PBS supplemented with 10% FBS was added to create a single-cell suspension. All peptide stocks were dissolved in DMSO, and stored at −20° C. in the dark. Cells were incubated with each peptide (at the desired final concentration, between 1-10 μM) for 3 hrs at 37° C. in the dark under constant rotation. After incubation, cells were washed 3× with PBS with 10% FBS (by centrifugation at 7000 rpm for 3 mins each). Then, cells were resuspended in 3.7% formaldehyde for fixation, and finally washed once with PBS. Cells were evaluated for peptide uptake (mean fluorescence intensity) by flow cytometry (10,000-20,000 events).
# For blocking studies, cells were dissociated as described above and resuspended in cold PBS with 10% FBS. Cells were then incubated with a 50× molar excess of unlabeled peptide for 10 mins on ice, before adding the corresponding FITC-labeled peptide at a final concentration of 1 μM and incubated for 1.5 hrs on ice. Cells were then washed with cold PBS with 10% FBS, fixed and analyzed by flow cytometry.
# [3] = molecular target: T2, recombinant BΔg protein (deglycosylated brevican) (Homo sapiens, UniProt Q96GW7); assay: Octet steady state binding affinity to recombinant BΔg; details: steady state analysis, Octet RED, peptide up to 10 μM; read-out: KD (dissociation constant) to BΔg protein
# T2 construct: purchased R&D Systems 4009-BC-050
# T2 sequence (Q96GW7 23-911): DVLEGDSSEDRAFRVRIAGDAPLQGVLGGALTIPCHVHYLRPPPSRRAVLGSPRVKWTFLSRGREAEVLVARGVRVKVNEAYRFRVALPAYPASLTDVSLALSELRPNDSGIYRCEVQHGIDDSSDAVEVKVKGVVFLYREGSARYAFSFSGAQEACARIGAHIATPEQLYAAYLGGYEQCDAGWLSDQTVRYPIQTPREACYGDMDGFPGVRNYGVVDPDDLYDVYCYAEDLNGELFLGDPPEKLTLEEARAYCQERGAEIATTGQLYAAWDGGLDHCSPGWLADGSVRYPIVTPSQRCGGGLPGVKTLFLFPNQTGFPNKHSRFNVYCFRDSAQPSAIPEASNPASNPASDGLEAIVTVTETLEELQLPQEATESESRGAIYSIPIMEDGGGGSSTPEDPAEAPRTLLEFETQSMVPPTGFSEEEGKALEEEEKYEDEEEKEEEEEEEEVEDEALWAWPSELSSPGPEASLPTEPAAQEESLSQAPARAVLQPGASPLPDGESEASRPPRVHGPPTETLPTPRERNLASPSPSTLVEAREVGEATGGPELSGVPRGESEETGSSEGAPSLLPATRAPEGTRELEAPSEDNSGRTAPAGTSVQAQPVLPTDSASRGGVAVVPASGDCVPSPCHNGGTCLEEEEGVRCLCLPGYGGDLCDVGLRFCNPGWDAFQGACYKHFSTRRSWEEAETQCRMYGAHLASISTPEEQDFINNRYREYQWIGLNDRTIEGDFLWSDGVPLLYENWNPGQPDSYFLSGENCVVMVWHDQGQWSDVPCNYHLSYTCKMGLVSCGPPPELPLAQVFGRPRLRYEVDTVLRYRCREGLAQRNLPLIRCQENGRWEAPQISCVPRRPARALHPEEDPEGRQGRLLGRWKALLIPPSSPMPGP
# Experimental: A ForteBio OctetRed384 instrument was used to study the binding kinetics of each peptide to recombinant human brevican (re-suspended in PBS and 0.1 mM EDTA, pH 6.8). The brevican protein was deglycosylated prior to experimental use in water+0.05% tween, PI, sialidase, 0-glycosidase, N-glycosidase in sodium acetate [200 mM], NaCl [250 mM], Tris-HCl [200 mM], pH 7.5.) in the presence of protease inhibitor overnight at 4° C. (this entire composition will be referred to as ‘de-glycosylation buffer’). […] The final volume for all the solutions was 80 μl/well. Assays were performed at 30° C. in solid black 384-well plates (Geiger Bio-One). Prior to beginning, Ni-NTA biosensors were soaked for 10 min in working buffer. Before loading the protein onto each biosensor, a baseline was established in working buffer for 60 s. Deglycosylated brevican (50 μg/ml BΔg; His-tagged) was loaded on the surface of each biosensors for 180 s. […] Reference biosensors were also included in the plate as internal controls, where biosensors were exposed to the ‘de-glycosylation buffer’ lacking brevican protein during the loading step. A 60 s biosensor washing step was applied. Then, biosensors were exposed to the analyte (peptide) in working buffer (ranging between 0-10 μM BTP) for 300 s during the ‘association’ step. Finally, the biosensors were exposed to working buffer (without peptide) during the ‘dissociation’ step for 600 s. Binding affinity of each peptide was assessed through steady state analysis, where the response unit was plotted over peptide concentration. All data was plotted and curves were fitted using the non-linear ‘one-site specific binding’ fit, and the dissociation constant (KD) value was calculated using the GraphPad Prism software.
# Binding kinetics analyses were performed using the Octet RED platform (Forte Bio) to measure the binding affinity of BTP-7, 8 and 9 to purified recombinant BΔg protein.
compound,measurement,setting,value
CC[C@@H](C)[C@@H](NC(=O)[C@H](N)[C@H](C)O)C(=O)N[C@H](CCCNC(=N)N)C(=O)N[C@H](CCCCN)C(=O)N[C@H](CC(C)C)C(=O)N[C@@H](C(=O)N[C@H](CCCNC(=N)N)C(=O)N[C@H](Cc1c[nH]cn1)C(N)=O)C(C)C [BTP-8] (H-[dT][dI][dR][dK][dL][dV][dR][dH]-NH2; N-terminus and C-terminus assumed),peptide conformation in the presence of the scramble(BΔg) peptide,[1],unaffected
same,peptide conformation in the presence of the BΔg-derived peptide,[2],unaffected
same,uptake in HEK-Bcan cells in the presence of the blocking peptide,HEK-Bcan cells,reduced uptake
same,Kd,[3],1.57 µM
